Measurements from patent publication US9469650B2, “Melampomagnolide B derivatives” (BOARD OF TRUSTEES OF THE UNIVERSITY OF ARKANSAS, priority 2013, dated 2016).

How the values were obtained:
[1] = system: T-47D; test: panel of 60 human tumor cell lines, growth inhibition (Breast Cancer); conditions: T-47D
[2] = system: MDA-MB-468; test: as above
[3] = system: PC-3; test: panel of 60 human tumor cell lines, growth inhibition (Prostate Cancer)
[4] = system: DU-145; test: as above
[5] = system: HOP-62; test: panel of 60 human tumor cell lines, growth inhibition (Non-Small Cell Lung Cancer)
[6] = system: HOP-92; test: as above; conditions: for Percent Growth: HOP-92; for GI50: HOP-92, HOP-92
[7] = system: NCI-H226; test: as above
[8] = system: NCI-H460; test: as above

C=C1C(=O)O[C@H]2[C@H]1CC/C(COC(=O)NCCc1ccccn1)=C\CC[C@@]1(C)O[C@@H]21 [JVM 61, ((1aR,7aS,10aS,10bS,E)-1a-methyl-8-methylene-9-oxo-1a,2,3,6,7,7a,8,9,10a,10b-decahydrooxireno[2′,3′:9,10]cyclodeca[1,2-b]furan-5-yl)methyl-(2-(pyridin-2-yl)ethyl)carbamate]
Percent Growth ([1]; Log10 Concentration −6.0): 106% | Percent Growth ([1]; Log10 Concentration −7.0): 104% | Percent Growth ([1]; Log10 Concentration −8.0): 98% | GI50 ([2]; Homo sapiens, MDA-MB-468): 3.22 µM | CC50 ([2]; Homo sapiens, MDA-MB-468, read-out: LC50): 64.5 µM | IC (TGI) ([2]; Homo sapiens, MDA-MB-468, read-out: TGI): 16.4 µM | Percent Growth ([2]; MDA-MB-468, Log10 Concentration −4.0): −66% | Percent Growth ([2]; MDA-MB-468, Log10 Concentration −5.0): 18% | Percent Growth ([2]; MDA-MB-468, Log10 Concentration −6.0): 83% | Percent Growth ([2]; MDA-MB-468, Log10 Concentration −7.0): 89% | Percent Growth ([2]; MDA-MB-468, Log10 Concentration −8.0): 95% | GI50 ([3]; Homo sapiens, PC-3): 15.6 µM | CC50 ([3]; Homo sapiens, PC-3, read-out: LC50): 76.8 µM | IC (TGI) ([3]; Homo sapiens, PC-3, read-out: TGI): 35.7 µM | Percent Growth ([3]; PC-3, Log10 Concentration −4.0): −67% | Percent Growth ([3]; PC-3, Log10 Concentration −5.0): 83% | Percent Growth ([3]; PC-3, Log10 Concentration −6.0): 97% | Percent Growth ([3]; PC-3, Log10 Concentration −7.0): 95% | Percent Growth ([3]; PC-3, Log10 Concentration −8.0): 98% | Percent Growth ([4]; DU-145, Log10 Concentration −4.0): −87% | Percent Growth ([4]; DU-145, Log10 Concentration −5.0): 26% | Percent Growth ([4]; DU-145, Log10 Concentration −6.0): 97% | Percent Growth ([4]; DU-145, Log10 Concentration −7.0): 108% | Percent Growth ([4]; DU-145, Log10 Concentration −8.0): 102% | GI50 ([4]; Homo sapiens, DU-145): 4.59 µM | CC50 ([4]; Homo sapiens, DU-145, read-out: LC50): 47 µM | IC (TGI) ([4]; Homo sapiens, DU-145, read-out: TGI): 16.9 µM | Percent Growth ([5]; HOP-62, Log10 Concentration −4.0): −65% | Percent Growth ([5]; HOP-62, Log10 Concentration −5.0): 91% | Percent Growth ([5]; HOP-62, Log10 Concentration −6.0): 108% | Percent Growth ([5]; HOP-62, Log10 Concentration −7.0): 102% | Percent Growth ([5]; HOP-62, Log10 Concentration −8.0): 99% | GI50 ([5]; Homo sapiens, HOP-62): 18.4 µM | CC50 ([5]; Homo sapiens, HOP-62, read-out: LC50): 79.7 µM | IC (TGI) ([5]; Homo sapiens, HOP-62, read-out: TGI): 38.3 µM | Percent Growth ([6]; Log10 Concentration −4.0): −87% | Percent Growth ([6]; Log10 Concentration −5.0): 12% | Percent Growth ([6]; Log10 Concentration −6.0): 71% | Percent Growth ([6]; Log10 Concentration −7.0): 66% | Percent Growth ([6]; Log10 Concentration −8.0): 0.2% | GI50 ([6]; Homo sapiens): 2.25 µM | GI50 ([6]; Homo sapiens, 5-dose assay): 2.25 µM | CC50 ([6]; Homo sapiens, HOP-92, read-out: LC50): 42.2 µM | IC (TGI) ([6]; Homo sapiens, HOP-92, read-out: TGI): 13.1 µM | GI50 ([7]; Homo sapiens, NCI-H226): 14.1 µM | CC50 ([7]; Homo sapiens, NCI-H226, read-out: LC50): 81.3 µM | IC (TGI) ([7]; Homo sapiens, NCI-H226, read-out: TGI): 33.8 µM | Percent Growth ([7]; NCI-H226, Log10 Concentration −4.0): −62% | Percent Growth ([7]; NCI-H226, Log10 Concentration −5.0): 70% | Percent Growth ([7]; NCI-H226, Log10 Concentration −6.0): 91% | Percent Growth ([7]; NCI-H226, Log10 Concentration −7.0): 92% | Percent Growth ([7]; NCI-H226, Log10 Concentration −8.0): 94% | GI50 ([8]; Homo sapiens, NCI-H460): 14.4 µM | CC50 ([8]; Homo sapiens, NCI-H460, read-out: LC50): 97.4 µM | IC (TGI) ([8]; Homo sapiens, NCI-H460, read-out: TGI): 37.5 µM | Percent Growth ([8]; NCI-H460, Log10 Concentration −4.0): −51% | Percent Growth ([8]; NCI-H460, Log10 Concentration −5.0): 69% | Percent Growth ([8]; NCI-H460, Log10 Concentration −6.0): 102% | Percent Growth ([8]; NCI-H460, Log10 Concentration −7.0): 102% | Percent Growth ([8]; NCI-H460, Log10 Concentration −8.0): 104%
